Results: PubChem BioAssay AID248 (DTP/NCI, 2004)
Values joined by “and” are separate entries in the source; they are usually repeats but may differ in a detail not shown here. Equal values may be shown once. Toxic doses and inconclusive results are not listed. Rule as the data show it: active = T/C of 150% or more; inactive = T/C below 125%.

System: L1210 leukemia ip in BDF1 mice, survival T/C
Assay: NCI In Vivo Anticancer Drug Screen. Data for tumor model L1210 Leukemia (intraperitoneal) in B6D2F1 (BDF1) mice
Details: endpoint: mean survival time, higher = longer survival
Procedure, shortened: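 In this screen, tumor-bearing mice given compound are compared to those given vehicle, and their survival values are reported as a treated-to-control quotient.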

[1] = dose: 100.0 mg/kg/injection, schedule: Q01DX001 (ip), vehicle: carboxymethylcellulose (CMC)
[2] = dose: 200.0 mg/kg/injection, schedule: Q01DX001 (ip), vehicle: carboxymethylcellulose (CMC)
[3] = dose: 100.0 mg/kg/injection, schedule: Q01DX001 (ip), vehicle: saline
[4] = dose: 400.0 mg/kg/injection, schedule: Q01DX001 (ip), vehicle: saline
[5] = dose: 100.0 mg/kg/injection, schedule: Q04DX003 (ip), vehicle: saline with Tween-80
[6] = dose: 200.0 mg/kg/injection, schedule: Q04DX003 (ip), vehicle: saline with Tween-80
[7] = dose: 100.0 mg/kg/injection, schedule: Q04DX003 (ip), vehicle: saline
[8] = dose: 200.0 mg/kg/injection, schedule: Q04DX003 (ip), vehicle: saline
[9] = dose: 400.0 mg/kg/injection, schedule: Q04DX003 (ip), vehicle: saline
[10] = dose: 100.0 mg/kg/injection, schedule: Q01DX009 (ip), vehicle: saline
[11] = dose: 200.0 mg/kg/injection, schedule: Q01DX009 (ip), vehicle: saline
[12] = dose: 100.0 mg/kg/injection, schedule: Q04DX002 (ip), vehicle: Klucel (hydroxypropylcellulose) (HPC)
[13] = dose: 200.0 mg/kg/injection, schedule: Q04DX002 (ip), vehicle: Klucel (hydroxypropylcellulose) (HPC)

Measured: T/C

O=C(O)C(CO)c1ccc(F)cc1 (configuration not stated)
inactive: [1] 108 % of control | [2] 106 % of control | dose: 400.0 mg/kg/injection, schedule: Q01DX001 (ip), vehicle: carboxymethylcellulose (CMC) 108 % of control

O=C(NC(=S)Nc1ccccc1)c1cccc(Cl)c1
inactive: dose: 75.0 mg/kg/injection, schedule: Q01DX001 (ip), vehicle: carboxymethylcellulose (CMC) 95 % of control | dose: 150.0 mg/kg/injection, schedule: Q01DX001 (ip), vehicle: carboxymethylcellulose (CMC) 96 % of control

C=NC1CCCCC1
inactive: dose: 100.0 mg/kg/injection, schedule: Q04DX002 (ip), vehicle: gum acacia 105 % of control | dose: 200.0 mg/kg/injection, schedule: Q04DX002 (ip), vehicle: gum acacia 105 % of control | dose: 400.0 mg/kg/injection, schedule: Q04DX002 (ip), vehicle: gum acacia 92 % of control

C1CCC2CC3CCCCC3CC2C1 (configuration not stated)
inactive: [3] 90 % of control | [4] 102 % of control

O=C(O)c1cc2c(Br)cccc2c2cc(C(F)(F)F)ccc12
inactive: [5] 97 % of control | [6] 113 % of control

COC(=O)C1=C(C(=O)OC)C2(OC(C)=O)C=C(OC(C)=O)C1C(C)(C)C2 (configuration not stated)
inactive: [3] 94 % of control | dose: 100.0 mg/kg/injection, schedule: Q01DX009 (ip), vehicle: acetone 93 % of control | [7] 111 % of control | dose: 200.0 mg/kg/injection, schedule: Q01DX001 (ip), vehicle: saline 102 % of control | dose: 200.0 mg/kg/injection, schedule: Q01DX009 (ip), vehicle: acetone 90 % of control | [8] 103 % of control | [4] 102 % of control | dose: 400.0 mg/kg/injection, schedule: Q01DX009 (ip), vehicle: acetone 88 % of control | [9] 104 % of control

CC(=O)ONc1nc(C)c(CCC2OCCO2)c(SC(=N)N)n1
inactive: [10] 109 % of control | [7] 110 % of control | [11] 113 % of control | [8] 105 % of control | dose: 400.0 mg/kg/injection, schedule: Q01DX009 (ip), vehicle: saline 93 % of control | [9] 100 % of control

C[C@]12CC[C@H]3[C@@H](CCC4=CC(=O)CC[C@@]43CO)[C@@H]1CC[C@@H]2O
inactive: dose: 50.0 mg/kg/injection, schedule: Q01DX001 (sc), vehicle: steriod suspending solution 102 % of control | dose: 100.0 mg/kg/injection, schedule: Q01DX001 (sc), vehicle: steriod suspending solution 98 % of control | dose: 200.0 mg/kg/injection, schedule: Q01DX001 (sc), vehicle: steriod suspending solution 98 % of control | dose: 400.0 mg/kg/injection, schedule: Q01DX001 (sc), vehicle: steriod suspending solution 102 % of control

N#CSCC(=O)c1ccc(Cl)cc1
inactive: dose: 50.0 mg/kg/injection, schedule: Q01DX001 (ip), vehicle: carboxymethylcellulose (CMC) 91 % of control | [1] 100 % of control | [2] 100 % of control

CCOC(=O)C(C)(C)CO
inactive: dose: 200.0 mg/kg/injection, schedule: Q04DX003 (ip), vehicle: saline sonified 103 % of control | dose: 400.0 mg/kg/injection, schedule: Q04DX003 (ip), vehicle: saline sonified 93 % of control | dose: 800.0 mg/kg/injection, schedule: Q04DX003 (ip), vehicle: saline sonified 101 % of control

C(=C/c1ccccn1)/c1ccccc1
inactive: [12] 100 % of control | [13] 103 % of control | dose: 400.0 mg/kg/injection, schedule: Q04DX002 (ip), vehicle: Klucel (hydroxypropylcellulose) (HPC) 122 % of control

Cc1cc2c(cc1C)/C(=N/O)CCC2
inactive: dose: 100.0 mg/kg/injection, schedule: Q01DX009 (ip), vehicle: Klucel (hydroxypropylcellulose) (HPC) 100 % of control | dose: 200.0 mg/kg/injection, schedule: Q01DX009 (ip), vehicle: Klucel (hydroxypropylcellulose) (HPC) 101 % of control | dose: 400.0 mg/kg/injection, schedule: Q01DX009 (ip), vehicle: Klucel (hydroxypropylcellulose) (HPC) 101 % of control

Cc1ccc([As](=O)(O)O)cc1F
inactive: dose: 1.56 mg/kg/injection, schedule: Q01DX009 (ip), vehicle: Klucel (hydroxypropylcellulose) (HPC) 94 % of control | dose: 3.13 mg/kg/injection, schedule: Q01DX009 (ip), vehicle: Klucel (hydroxypropylcellulose) (HPC) 94 % of control | dose: 6.25 mg/kg/injection, schedule: Q01DX009 (ip), vehicle: Klucel (hydroxypropylcellulose) (HPC) 88 % of control

CC(/C=N/NC1=NCCN1)=N/NC1=NCCN1
inactive: dose: 15.7 mg/kg/injection, schedule: Q01DX Z (ip), vehicle: carboxymethylcellulose (CMC) 104 % of control | dose: 31.5 mg/kg/injection, schedule: Q01DX Z (ip), vehicle: carboxymethylcellulose (CMC) 101 % of control | dose: 63.0 mg/kg/injection, schedule: Q01DX Z (ip), vehicle: carboxymethylcellulose (CMC) 102 % of control | dose: 126.0 mg/kg/injection, schedule: Q01DX Z (ip), vehicle: carboxymethylcellulose (CMC) 103 % of control | dose: 127.0 mg/kg/injection, schedule: Q01DX Z (ip), vehicle: carboxymethylcellulose (CMC) 106 % of control

CCCc1ccc(OCC=C(C)C)cc1
inactive: dose: 50.0 mg/kg/injection, schedule: Q04DX002 (ip), vehicle: saline with Tween-80 100 % of control | dose: 100.0 mg/kg/injection, schedule: Q04DX002 (ip), vehicle: saline with Tween-80 100 % of control

CCCCCCN(CCCCCC)C(C)=O
inactive: dose: 50.0 mg/kg/injection, schedule: Q04DX003 (ip), vehicle: other 103 % of control | dose: 100.0 mg/kg/injection, schedule: Q01DX001 (ip), vehicle: other 96 % of control | dose: 100.0 mg/kg/injection, schedule: Q04DX003 (ip), vehicle: other 98 % of control | dose: 200.0 mg/kg/injection, schedule: Q01DX001 (ip), vehicle: other 96 % of control | dose: 200.0 mg/kg/injection, schedule: Q04DX003 (ip), vehicle: other 93 % of control

c1cc[c]([Pb]([c]2ccccc2)([c]2ccccc2)[n]2cnc3cncnc32)cc1
inactive: dose: 5.0 mg/kg/injection, schedule: Q01DX001 (ip), vehicle: other 103 % of control | dose: 10.0 mg/kg/injection, schedule: Q01DX001 (ip), vehicle: other 95 % of control

CCCCSC(C)=N
inactive: dose: 100.0 mg/kg/injection, schedule: Q04DX002 (ip), vehicle: saline 97 % of control | dose: 200.0 mg/kg/injection, schedule: Q04DX002 (ip), vehicle: saline 105 % of control | dose: 400.0 mg/kg/injection, schedule: Q04DX002 (ip), vehicle: saline 97 % of control

Nc1ncnc2c1ncn2C1OC(COP(=O)(O)OP(=O)(O)OCC2OC([n+]3cccc(C=O)c3)C(O)C2O)C(O)C1O (configuration not stated)
inactive: dose: 80.0 mg/kg/injection, schedule: Q01DX Z (ip), vehicle: saline 95 % of control | dose: 120.0 mg/kg/injection, schedule: Q01DX Z (ip), vehicle: saline 90 % of control | dose: 180.0 mg/kg/injection, schedule: Q01DX Z (ip), vehicle: saline 97 % of control | dose: 270.0 mg/kg/injection, schedule: Q01DX Z (ip), vehicle: saline 101 % of control

NC(CCCC(N)C(=O)O)C(=O)O (configuration not stated)
inactive: dose: 12.5 mg/kg/injection, schedule: Q04DX002 (ip), vehicle: saline 103 % of control | dose: 25.0 mg/kg/injection, schedule: Q04DX002 (ip), vehicle: saline 100 % of control | dose: 50.0 mg/kg/injection, schedule: Q04DX002 (ip), vehicle: Klucel (hydroxypropylcellulose) (HPC) 96 % of control | dose: 50.0 mg/kg/injection, schedule: Q04DX002 (ip), vehicle: saline 93 % of control | [12] 101 % of control | [13] 93 % of control

CC(=O)Nc1onc(C)c1N
inactive: dose: 50.0 mg/kg/injection, schedule: Q01DX009 (ip), vehicle: saline 103 % of control | [10] 98 % of control | [7] 94 % of control | [11] 116 % of control and 88 % of control | [8] 94 % of control | [9] 92 % of control

O=C1CCc2ccccc2C(=O)C1c1ccc(Cl)cc1 (configuration not stated)
inactive: [5] 90 % of control | [6] 97 % of control | dose: 400.0 mg/kg/injection, schedule: Q04DX003 (ip), vehicle: saline with Tween-80 93 % of control
